How the values were obtained:
Type in all cases: physicochemical
[1] = Bulk stability of Compound 1 Form B (1 week stress)
[2] = Approximate solubility at 25° C. and 50° C. (visual)
Method: About 5 mg of Compound 1 Form A was weighed to a 2 mL glass vial. 20 μL aliquots of each solvent were added to dissolve the drug substance at 25° C. About 10 mg of Compound 1 Form A was weighed to a 2 mL glass vial. 20 μL aliquots of each solvent were added to dissolve the drug substance at 50° C. Vortex and sonication were applied to assist dissolution. Maximum volume of each solvent added was 1 mL. Approximate solubility was determined by visual observation.
About 5 mg of Compound 1 Form B was weighed to a 2 mL glass vial. 20 μL aliquots of each solvent were added to dissolve the drug substance at 25° C. About 10 mg of Compound 1 Form B was weighed to a 2 mL glass vial. […] aliquots of each solvent were added to dissolve the drug substance at 50° C. Vortex and sonication were applied to assist dissolution. Maximum volume of each solvent added is 1 mL. Approximate solubility was determined by visual observation.

[3] = Dry grinding simulation experiments
Method: About 20 mg of Compound 1 Form B was ground manually with a mortar and a pestle for 1, 2 and 5 min. Potential form change, and degree of crystallinity were evaluated by XRPD.

[4] = Solid state, photo (visible light, 1.2 million lux-hrs)

In the case of `CCN(C)S(=O)(=O)Nc1ccc(F)c(Oc2ccc3ncn([C@H]4COC5(CCN(C(=O)CC6(O)CCN(c7cc8c(cc7F)c(N7CCC(=O)NC7=O)nn8C)CC6)CC5)C4)c(=O)c3c2)c1C#N` [Compound 1 Form B], the “Bulk (XRPD) crystallinity” value [1, 4] is reported as “Slight decrease in crystallinity”, the Color [1, 4] is reported as “No change of color” and the “Purity, Bulk (HPLC)” value [1, 4] is reported as 96.9%. For the same compound, the “Purity, Control (HPLC)” value ([1]; photo test, control sample) was 99.4%, the solubility ([2]; 1,4-Dioxane, 25° C., listed as Form B) was 20~25 mg/mL and the solubility ([2]; 1,4-Dioxane, 50° C., listed as Form B) was 28~40 mg/mL. It also gave a solubility ([2]; 2-MeTHF, 25° C.) of under 5 mg/mL, a solubility ([2]; 2-MeTHF, 50° C.) of under 5 mg/mL and a solubility ([2]; Acetone, 25° C., listed as Form B) of under 5 mg/mL. The solubility ([2]; Acetone, 50° C., listed as Form B) was under 5 mg/mL, the solubility ([2]; Acetonitrile, 25° C., listed as Form B) was under 5 mg/mL and the solubility ([2]; Acetonitrile, 50° C., listed as Form B) was under 5 mg/mL. The solubility ([2]; DCM, 25° C., listed as Form B) was 83~125 mg/mL, the solubility ([2]; DMSO, 25° C.) was “at least 250 mg/mL” and the solubility ([2]; DMSO, 25° C., listed as Form B) was over 250 mg/mL. For the same compound, the solubility ([2]; Ethanol, 50° C.) was under 5 mg/mL, the solubility ([2]; Heptane, 50° C.) was under 5 mg/mL and the solubility ([2]; Isopropanol, 50° C.) was under 5 mg/mL. For the same compound, the solubility ([2]; MTBE, 50° C.) was under 5 mg/mL, the solubility ([2]; Methanol, 25° C.) was under 5 mg/mL and the solubility ([2]; Methanol, 50° C.) was under 5 mg/mL. The solubility ([2]; THF, 25° C., listed as Form B) was 10~13 mg/mL, the solubility ([2]; THF, 50° C., listed as Form B) was 16~20 mg/mL and the solubility ([2]; Toluene, 50° C.) was under 5 mg/mL. For the same compound, the solubility ([2]; Water, 50° C.) was under 5 mg/mL, the “Morphic form stability under dry grinding” value [3] was “excellent morphic form stability” and the Comments ([3]; grinding time 1 min) was “Slight decrease in crystallinity”. The XRPD ([3]; grinding time 1 min) was “Form B”, the Comments ([3]; grinding time 2 min) was “Slight decrease in crystallinity” and the XRPD ([3]; grinding time 2 min) was “Form B”. The Comments ([3]; grinding time 5 min) was “Slight decrease in crystallinity” and the XRPD ([3]; grinding time 5 min) was “Form B”.

From US20250289827A1, “MORPHIC FORMS OF A MUTANT BRAF DEGRADER AND METHODS OF MANUFACTURE THEREOF” (C4 THERAPEUTICS, INC., priority 2022, published 2025)
